Test results taken from patent US20120100204A1, “TGF-Beta Stimulating Agent Compositions and Combinations” (TCP INNOVATIONS LTD, priority 2007, published 2012).

System: anti-carbohydrate antibodies
Test: anti-carbohydrate antibody isotype profile in serum of men with coronary artery disease, direct ELISA
Format: in vivo, human
Conditions: 3 months
Description: Blood samples were also taken at baseline, immediately prior to beginning the drug treatments, and also after 90 days. The blood was drawn from the antecubital fossa using 19-gauge butterfly needles, and dispensed into polypropylene tubes, where it was allowed to clot for between 2 and 3 hours at room temperature. The clot was released, and the sample spun (450×g; 4 mins), and the serum supernatant removed, aliquoted and stored frozen at −80° C. until analysed.
The level of anti-carbohydrate antibodies was measured by direct ELISA as previously described (Mosedale et al (2006) J. Immunol. Meth. 309:182-91). Briefly, Maxisop 96-well plates were coated with BSA-alpha-Gal (Glycorex) at 1 μg/well in 200 μl of Sodium Carbonate pH9.0 overnight at 4° C. After three quick washes with PBS, non-specific binding was blocked using 3% BSA in PBS at room temperature for 1 hour. After three further washes the serum was added at various dilutions ranging from neat to 1:100 dilution in PBS, then incubated for 2 hours at room temperature with shaking. The serum was then discarded, the plate washed 5 further times with PBS+0.1% Tween-20, and replicate strips (each containing a full range of dilutions of the same serum sample) were exposed to highly specific monoclonal antibodies to each isotype, including IgG1, IgG2, IgG3, IgG4, IgM, IgA, IgE and IgD, at 1 μg/ml in blocking buffer. After a further hour at room temperature with shaking, the antibody was discarded and the plate washed 3 further times with PBS/Tween, before being exposed to donkey anti-mouse IgG minimum cross reactivity, coupled to horseradish peroxidase (Jackson Immunoresearch), at 1 μg/ml in blocking buffer for a further 1 hour at room temperature with shaking. After a final 3 washes in PBS/Tween and single wash in PBS, 200 μl of K-blue chromogenic substrate was added to each well. After a carefully controlled period, accurate to 5 seconds, equal for all wells, the reaction was stopped by the addition of 50 μl 2M HCl and the colour read at 450 nm. Results are reported for each isotype as the mean titre (that is, the dilution of serum which yielded 50% of the maximal signal) as well as the mean signal at that titre (since the maximum absorbance in many cases was considerably below full scale deflection).
Blood samples were also taken at baseline, immediately prior to beginning the drug treatments, and also after 90 days, and serum prepared exactly as in Example 5. The level of anti-carbohydrate antibodies was then measured by direct ELISA using the procedure given in Example 5.

[1] = Tamoxifen 20 mg once daily, aspirin 75 mg once daily, mean ± SD
[2] = neat serum, Tamoxifen 20 mg once daily, aspirin 75 mg once daily, mean ± SD

For `CC/C(=C(\c1ccccc1)c1ccc(OCCN(C)C)cc1)c1ccccc1` [Tamoxifen], the “IgA titre, change versus baseline” value [1] was “+14% ± 52%”, the “IgD titre, change versus baseline” value [1] was −234% ± 113% and the “IgG2 titre, change versus baseline” value [1] was “+176% ± 43%”. For the same compound, the “IgM titre, change versus baseline” value [1] was “+16% ± 28%”, the “absorbance of the IgA class anti-carbohydrate antibodies (in words)” value (Example 6) was “statistically significantly increased” and the “titre of IgD class anti-carbohydrate antibodies (in words)” value (Example 6) was “statistically significantly reduced”. The “titre of the IgG2 class anti-carbohydrate antibodies (in words)” value (Example 6) was “statistically significantly increased”, the “IgA Absorbance, change versus baseline” value [2] was 0.31 ± 0.17 and the “IgD Absorbance, change versus baseline” value [2] was −0.82 ± 0.51. The “IgG2 Absorbance, change versus baseline” value [2] was “+0.61 ± 0.17” and the “IgM Absorbance, change versus baseline” value [2] was −0.29 ± 0.36.
